Test results reported in US20080220416A1, “Compositions for Inhibiting Cell Growth and Inducing Apoptosis in Cancer Cells and Methods of Use Thereof” (THE BOARD OF TRUSTEES OF THE UNIVERSITY OF ILLINOI, priority 2004, published 2008).
Square brackets hold non-standard residues; d marks the D form. Peptide text beside a SMILES is read from it. * marks the point of attachment. Nle = CCCC[C@H](N)C(=O)O; Cbz = O=C(OCc1ccccc1)*

How the values were obtained:
RPMI8226 myeloma cells = assay: Apoptosis of myeloma cell line RPMI8226 (Annexin V-FITC); type: cell-based; conditions: for apoptotic response: after 18 hrs
Protocol: (§1) The cells were evaluated for induction of NOXA and an increase in cleaved caspase 3, by Western blot analysis and for cell viability using APO TARGET Annexin V-FITC staining kits (Biosource) as described above. The caspase 3 antibody was purchased from Abcam (Cambridge, Mass.). […] At a concentration of 10 μM, bortezomib induces approximately equal NOXA levels compared to the other proteasome inhibitor tested (MG-132) and the dual inhibitor z-Leu-Leu-Nle-CHO. The induction of NOXA coincided with the appearance of cleaved caspase 3, which is involved in the final stage of cell death. […] FIG. 12 is graph showing representative results from bortezomib treatment. The induction of apoptosis is concentration-dependent (FIG. 12); with doses as low as 0.01 μM bortezomib trigger significant apoptosis (p<0.05).

NOXA = NOXA induction in multiple myeloma cell lines (Western blot); type: cell-based; conditions: RPMI8226 and U266; 24 hours; bortezomib 0.01 to 10 μM, MG-132 10 μM, z-Leu-Leu-Nle-CHO 10 μM
Protocol: as §1, with “Two different multiple myeloma cell lines (RMP18226 and U266) (ATCC, Rockville, Md.) were treated for 24 hours with various concentrations of the proteasome inhibitors bortezomib (0.01 to 10 μM) and MG-132 (10 μM), or the dual inhibitor z-Leu-Leu-Nle-CHO (10 μM). The cells” for “The cells”

Notch-1 = assay: Notch Western blot in MDA-MB231 cells; type: cell-based, human
Protocol: Notch silencing was confirmed by Western blot using commercial goat polyclonal antibodies from Santa Cruz Biotechnology to Notch-1 (C-20, Cat# sc-6014 S) and Notch-4 (C-19, Cat# sc-8644). Total cell lysates were prepared as follows: cells grown on 6 cm dishes were scraped in lysis buffer containing 1×PBS, 1% Nonidet P40, 0.5% deoxycholate, 0.1% SDS, freshly added aprotinin (45 μg/ml), phenylmethylsulfonyl fluoride (10 μg/ml), and sodium orthovanadate (10 μM). Lysates were sonicated 4 times for 5 seconds each, followed by 30 minutes incubation on ice. Lysates were centrifuged at 10,000 g for 20 minutes at 4° C. Supernatants were used as total cell lysates. Nuclear extracts were prepared as follows: 10,000,000 cells were pelleted, washed, and quickly frozen in a dry ice bath. Pellets were thawed by adding 100 μl of buffer 1 (10 mM HEPES, pH 7.9, 10 mM KCl, 1.5 mM MgCl2, 1 mM DTT). Nuclei were pelleted and lysed in 15 μl Buffer 2 (20 mM HEPES, pH7.9, 0.4 M NaCl, 1.5 mM MgCl2, 25% glycerol, 0.2 mM EDTA, 1 mM DTT, and 0.5 mM PMSF). Lysates were diluted in 50-70 μl Buffer 3 (20 mM HEPES, pH 7.9, 50 mM KCl, 20% glycerol, 0.2 mM EDTA, 1 mM DTT, 0.5 mM PMSF). Protein concentrations were estimated using the BCA protein assay (Pierce). Supernatants were boiled in reducing SDS sample buffer (Novex). Twenty μg protein per lane were run on a 3-8% Tris acetate gel (Invitrogen) in Tris Acetate Reducing Running Buffer (Novex). Protein bands were transferred onto PVDF membranes (BioRad) using transfer buffer (Novex). Membranes were then blocked overnight at 4° C. in 2% blocking solution in TBS (Roche). Primary antibodies were diluted in 2% Boehringer blocking solution (total volume 5 ml). Membranes were incubated for one hour at room temperature with shaking, then washed 6 times for 10 minutes each in TBS wash buffer. Membranes were incubated in secondary antibody in 2% of blocking solution for 30 minutes, then washed 6 times for 10 minutes each at RT in wash buffer. Bands were detected with chemiluminescent reagent (Roche) according to the manufacturer's directions. […]

| Compound | lowest dose triggering significant apoptosis (p<0.05) (RPMI8226 myeloma cells) [µM] | apoptotic response (RPMI8226 myeloma cells) | NOXA induction (NOXA) | N^IC and N^TM levels (Notch-1; MDA-MB231, 0.5, 1 or 2 μM, 24 h, virtually complete at 2 μM) | expression of Notch-1 and Notch-4 (Notch-1; MDA-MB231 / HMEC, data not shown) |
| --- | --- | --- | --- | --- | --- |
| CC(C)C[C@H](NC(=O)[C@H](Cc1ccccc1)NC(=O)c1cnccn1)B(O)O [bortezomib, N-(2-pyrazine)carbonyl-L-phenylalanine-L-leucine boronic acid] | 0.01 | triggered significant apoptotic response after 18 hrs | induces NOXA in a concentration dependent manner |  |  |
| CCCC[C@@H](C=O)NC(=O)[C@H](CC(C)C)NC(=O)[C@H](CC(C)C)NC(=O)OCc1ccccc1 [z-Leu-Leu-Nle-CHO, N-benzyloxycarbonyl-leucyl-leucyl-norleucinal] (Cbz-Leu-Leu-[Nle]-aldehyde) |  | triggered significant apoptotic response after 18 hrs | found to induce NOXA | dose-dependent decrease in N^IC and relative accumulation of N^TM |  |
| CC(C)C[C@@H](C=O)NC(=O)[C@H](CC(C)C)NC(=O)[C@H](CC(C)C)NC(=O)OCc1ccccc1 [MG-132, benzoxycarbonyl-Leucyl-Leucyl-Leucyl-aldehyde] (Cbz-Leu-Leu-Leu-aldehyde) |  | triggered significant apoptotic response after 18 hrs | found to induce NOXA |  |  |
| 5′-AAGTGTCTGAGGCCAGCAAGA-3′ [Notch-1 siRNA] |  |  |  |  | strongly inhibited the expression of both Notch-1 and -4 |
